Results published in patent publication US10544143B2, “4-azaindole compounds” (BRISTOL-MYERS SQUIBB COMPANY, priority 2017, dated 2020).
Read-outs that look alike come from different tables or passages of the source.

Experiments:
[1] = target: human TLR8 (Homo sapiens (Human), UniProt Q9NR97); assay: TLR8 inhibition reporter assay (HEK-Blue SEAP);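 further: SEAP driven by IFN-β minimal promoter carrying NF-κB and AP-1 sites, compounds dosed 0.05 nM to 50 µM for 22 h, inhibition scaled between agonist-plus-DMSO and reference-inhibitor wells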
Chain of human TLR8 (Q9NR97 27-1041): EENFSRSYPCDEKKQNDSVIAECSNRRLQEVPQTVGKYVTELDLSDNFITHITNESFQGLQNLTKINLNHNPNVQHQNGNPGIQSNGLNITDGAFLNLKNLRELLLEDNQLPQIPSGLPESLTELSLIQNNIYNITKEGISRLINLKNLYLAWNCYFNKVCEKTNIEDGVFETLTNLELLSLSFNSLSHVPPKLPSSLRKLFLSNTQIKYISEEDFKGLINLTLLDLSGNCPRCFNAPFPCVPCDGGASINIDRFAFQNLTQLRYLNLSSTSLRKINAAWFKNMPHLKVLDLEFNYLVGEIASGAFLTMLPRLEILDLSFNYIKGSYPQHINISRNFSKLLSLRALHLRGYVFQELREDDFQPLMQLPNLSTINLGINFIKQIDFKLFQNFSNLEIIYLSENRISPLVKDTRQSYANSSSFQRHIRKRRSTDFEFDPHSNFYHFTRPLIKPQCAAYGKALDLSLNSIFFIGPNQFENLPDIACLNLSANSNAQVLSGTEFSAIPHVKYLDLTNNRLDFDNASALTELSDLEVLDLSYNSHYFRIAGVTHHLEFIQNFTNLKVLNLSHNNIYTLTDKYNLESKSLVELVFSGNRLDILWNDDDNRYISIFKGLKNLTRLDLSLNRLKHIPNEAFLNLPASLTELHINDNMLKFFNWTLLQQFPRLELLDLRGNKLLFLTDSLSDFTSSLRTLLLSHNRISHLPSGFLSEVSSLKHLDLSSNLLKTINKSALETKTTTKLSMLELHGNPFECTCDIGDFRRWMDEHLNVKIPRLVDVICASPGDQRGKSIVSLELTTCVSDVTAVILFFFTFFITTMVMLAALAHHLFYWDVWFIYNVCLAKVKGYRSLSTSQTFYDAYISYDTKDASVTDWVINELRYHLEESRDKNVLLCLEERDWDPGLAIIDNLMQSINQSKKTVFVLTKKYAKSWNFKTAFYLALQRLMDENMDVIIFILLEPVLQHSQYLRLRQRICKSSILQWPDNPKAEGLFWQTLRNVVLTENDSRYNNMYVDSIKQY

[2] = target: human TLR9 (Homo sapiens (Human), UniProt Q9NR96); assay: TLR9 inhibition reporter assay (HEK-Blue SEAP);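 further: SEAP driven by an IFN-β minimal promoter with NF-κB and AP-1 sites, read after 22 h, compounds dosed 0.05 nM–50 µM, inhibition scaled between agonist plus DMSO and reference-inhibitor wells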
Chain of human TLR9 (Q9NR96 26-1032): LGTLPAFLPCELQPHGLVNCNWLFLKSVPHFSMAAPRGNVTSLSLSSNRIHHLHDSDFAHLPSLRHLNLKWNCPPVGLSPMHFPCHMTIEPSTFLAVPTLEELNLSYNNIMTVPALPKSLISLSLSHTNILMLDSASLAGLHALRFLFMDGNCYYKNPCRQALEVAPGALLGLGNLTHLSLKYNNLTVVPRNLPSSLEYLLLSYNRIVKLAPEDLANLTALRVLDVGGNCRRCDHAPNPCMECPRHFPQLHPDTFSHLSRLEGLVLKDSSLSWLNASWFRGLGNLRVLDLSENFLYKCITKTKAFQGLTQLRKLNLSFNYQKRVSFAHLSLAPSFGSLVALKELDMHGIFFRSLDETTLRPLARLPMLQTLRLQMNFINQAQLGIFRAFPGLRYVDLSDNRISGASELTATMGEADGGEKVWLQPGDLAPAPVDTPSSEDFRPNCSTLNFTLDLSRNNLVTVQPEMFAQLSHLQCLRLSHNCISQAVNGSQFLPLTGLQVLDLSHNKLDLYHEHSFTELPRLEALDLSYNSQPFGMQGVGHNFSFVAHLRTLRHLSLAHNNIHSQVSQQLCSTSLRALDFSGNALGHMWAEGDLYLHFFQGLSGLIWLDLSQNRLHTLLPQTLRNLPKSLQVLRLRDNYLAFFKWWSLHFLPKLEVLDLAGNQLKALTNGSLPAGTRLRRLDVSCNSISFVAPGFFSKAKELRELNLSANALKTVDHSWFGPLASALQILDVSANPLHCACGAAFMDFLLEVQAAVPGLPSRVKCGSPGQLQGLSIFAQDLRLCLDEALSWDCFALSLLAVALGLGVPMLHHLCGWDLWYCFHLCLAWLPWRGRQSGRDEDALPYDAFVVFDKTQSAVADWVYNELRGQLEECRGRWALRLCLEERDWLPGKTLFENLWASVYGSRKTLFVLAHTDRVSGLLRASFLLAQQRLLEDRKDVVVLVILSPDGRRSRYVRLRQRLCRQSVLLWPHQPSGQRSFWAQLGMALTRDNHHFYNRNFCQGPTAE

[3] = target: human TLR7 (Homo sapiens (Human), UniProt Q9NYK1); assay: TLR7 inhibition reporter assay (HEK-Blue SEAP); format: cell-based
Chain of human TLR7 (Q9NYK1 27-1049): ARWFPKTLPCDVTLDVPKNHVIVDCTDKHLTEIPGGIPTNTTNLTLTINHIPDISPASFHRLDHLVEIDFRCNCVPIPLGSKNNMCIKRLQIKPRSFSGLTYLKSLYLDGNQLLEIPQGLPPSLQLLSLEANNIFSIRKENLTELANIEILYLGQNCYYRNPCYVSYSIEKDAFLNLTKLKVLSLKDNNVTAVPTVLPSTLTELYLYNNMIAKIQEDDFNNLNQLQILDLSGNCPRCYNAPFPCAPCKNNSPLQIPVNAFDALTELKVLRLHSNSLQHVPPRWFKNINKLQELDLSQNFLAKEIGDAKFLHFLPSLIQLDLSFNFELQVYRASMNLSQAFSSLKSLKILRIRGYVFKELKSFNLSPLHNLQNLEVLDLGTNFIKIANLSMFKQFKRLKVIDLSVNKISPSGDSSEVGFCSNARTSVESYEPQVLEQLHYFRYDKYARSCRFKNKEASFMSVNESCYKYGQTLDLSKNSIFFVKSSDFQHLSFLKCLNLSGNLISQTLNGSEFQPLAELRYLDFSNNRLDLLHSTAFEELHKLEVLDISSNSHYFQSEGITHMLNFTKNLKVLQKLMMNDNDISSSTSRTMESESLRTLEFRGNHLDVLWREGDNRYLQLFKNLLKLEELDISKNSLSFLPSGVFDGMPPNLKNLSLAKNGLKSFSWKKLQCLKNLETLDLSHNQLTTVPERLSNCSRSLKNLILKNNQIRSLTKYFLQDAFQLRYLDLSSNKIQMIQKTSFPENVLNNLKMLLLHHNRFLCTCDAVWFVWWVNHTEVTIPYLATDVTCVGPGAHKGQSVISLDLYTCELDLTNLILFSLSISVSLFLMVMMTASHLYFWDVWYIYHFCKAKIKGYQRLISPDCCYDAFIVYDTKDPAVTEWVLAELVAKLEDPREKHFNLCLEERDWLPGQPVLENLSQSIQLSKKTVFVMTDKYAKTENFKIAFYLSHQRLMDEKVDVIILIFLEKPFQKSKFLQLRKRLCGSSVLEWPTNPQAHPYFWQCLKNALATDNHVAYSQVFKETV

[4] = read-out: TLR8 IC50, HEK-Blue cells overexpressing human TLR8, SEAP reporter, R848 15.9 μM
[5] = read-out: TLR9 IC50, HEK-Blue cells overexpressing human TLR9, SEAP reporter, ODN2006 5 nM
[6] = HEK-Blue cells overexpressing human TLR7, SEAP reporter, gardiquimod 7.5 μM
[7] = read-out: TLR8 IC50, HEK-Blue cells overexpressing human TLR8, R848 15.9 μM stimulation, SEAP reporter
[8] = read-out: TLR9 IC50, HEK-Blue cells overexpressing human TLR9, ODN2006 5 nM stimulation, SEAP reporter
[9] = HEK-Blue cells overexpressing human TLR7, gardiquimod 7.5 μM stimulation, SEAP reporter
[10] = read-out: TLR8 IC50, HEK-Blue human TLR8 cells, R848 15.9 μM
[11] = read-out: TLR9 IC50, HEK-Blue human TLR9 cells, ODN2006 5 nM
[12] = HEK-Blue human TLR7 cells, gardiquimod 7.5 μM

Compound: CNC(=O)CN1CCC(c2ccc3[nH]c(-c4cn5ncnc5c(C)c4C)c(C(C)C)c3n2)CC1 [Example 539]
- IC50 [1, 4]: 0.82 nM
- IC50 [2, 5]: 3320 nM
- IC50 [3, 6]: 0.47 nM

Compound: Cc1c(-c2[nH]c3ccc(N4CC(N(C)C5CCOCC5)C4)nc3c2C(C)C)cn2ncnc2c1C [Example 24]
- IC50 [1, 7]: 2.7 nM
- IC50 [2, 8]: 14000 nM
- IC50 [3, 9]: 40 nM

Compound: CCN(CC(=O)N(C)C)C1CCC(c2ccc3[nH]c(-c4cn5ncnc5c(C)c4C)c(C(C)C)c3n2)CC1 (stereo not drawn) [Example 467]
- IC50 [1, 4]: 3.5 nM
- IC50 [2, 5]: 413 nM
- IC50 [3, 6]: 1.2 nM

Compound: Cc1c(-c2[nH]c3ccc(N4CCN(C(=O)CN(C)CCO)CC4)nc3c2C(C)C)cn2ncnc2c1C [Example 969]
- IC50 [1, 10]: 0.12 nM
- IC50 [2, 11]: 7180 nM
- IC50 [3, 12]: 1.3 nM

Compound: Cc1c(-c2[nH]c3ccc(C4CCC(N5CCN(C)C(=O)C5)CC4)nc3c2C(C)C)cn2ncnc2c1C (stereo not drawn) [Example 442]
- IC50 [1, 4]: 3.5 nM
- IC50 [2, 5]: 18300 nM
- IC50 [3, 6]: 3.7 nM

Compound: CCN(CC)CC(=O)N1CCN(c2ccc3[nH]c(-c4cn5ncnc5c(C)c4C)c(C(C)C)c3n2)[C@@H](C)C1 [Example 902]
- IC50 [1, 10]: 1.4 nM
- IC50 [2, 11]: 15800 nM
- IC50 [3, 12]: 1.1 nM

Compound: Cc1cc(-c2[nH]c3ccc(C4CCN(CCS(C)(=O)=O)CC4)nc3c2C(C)C)cn2ncnc12 [Example 552]
- IC50 [1, 4]: 2.1 nM
- IC50 [2, 5]: 4100 nM
- IC50 [3, 6]: 0.83 nM

Compound: COC(=O)N1CCN(C2CN(c3ccc4[nH]c(-c5cn6ncnc6c(C)c5C)c(C(C)C)c4n3)C2)CC1 [Example 42]
- IC50 [1, 7]: 57 nM
- IC50 [2, 8]: > 50000 nM
- IC50 [3, 9]: 178 nM

Compound: Cc1c(-c2[nH]c3ccc(N4CCN(C(=O)CNC(C)(C)C)CC4)nc3c2C(C)C)cn2ncnc2c1C [Example 877]
- IC50 [1, 10]: 1.6 nM
- IC50 [2, 11]: 12600 nM
- IC50 [3, 12]: 1.5 nM

Compound: Cc1c(-c2[nH]c3ccc(C4CCC(N5CC(C(=O)N(C)C)C5)CC4)nc3c2C(C)C)cn2ncnc2c1C (stereo not drawn) [Example 1050]
- IC50 [1, 10]: 4.8 nM
- IC50 [2, 11]: 2660 nM
- IC50 [3, 12]: 2.8 nM

Compound: Cc1c(-c2[nH]c3ccc(C4CN(CC(N)=O)C4)nc3c2C(C)C)cn2ncnc2c1C [Example 646]
- IC50 [1, 4]: 11 nM
- IC50 [2, 5]: 4140 nM
- IC50 [3, 6]: 2.1 nM

Compound: Cc1c(-c2[nH]c3ccc(N4CCN(C(=O)CN5CCCC5)[C@@H](C)C4)nc3c2C(C)C)cn2ncnc2c1C [Example 899]
- IC50 [1, 10]: 1.7 nM
- IC50 [2, 11]: 9780 nM
- IC50 [3, 12]: 1 nM

Compound: Cc1c(-c2[nH]c3ccc(C4CCC(NCCO)CC4)nc3c2C(C)C)cn2ncnc2c1C (stereo not drawn) [Example 379]
- IC50 [1, 7]: 4.7 nM
- IC50 [2, 8]: 909 nM
- IC50 [3, 9]: 2.6 nM

Compound: Cc1c(-c2[nH]c3ccc(N4CCN(C(=O)CCN(C)C)[C@H](C)C4)nc3c2C(C)C)cn2ncnc2c1C [Example 850]
- IC50 [1, 10]: 1.6 nM
- IC50 [2, 11]: 6540 nM
- IC50 [3, 12]: 0.72 nM

Compound: Cc1c(-c2[nH]c3ccc(C4CCC(N(C)CCC#N)CC4)nc3c2C(C)C)cn2ncnc2c1C (stereo not drawn) [Example 366]
- IC50 [1, 7]: 15 nM
- IC50 [2, 8]: 4690 nM
- IC50 [3, 9]: 5.3 nM

Compound: Cc1c(-c2[nH]c3ccc(N4C[C@H](C)N[C@@H](C)C4)nc3c2C(C)C)cn2ncnc2c1C [Example 757]
- IC50 [1, 4]: 1.9 nM
- IC50 [2, 5]: 5220 nM
- IC50 [3, 6]: 0.7 nM

Compound: Cc1c(-c2[nH]c3ccc(N4CC(N5CCC(O)CC5)C4)nc3c2C(C)C)cn2ncnc2c1C [Example 40]
- IC50 [1, 7]: 1.7 nM
- IC50 [2, 8]: 7960 nM
- IC50 [3, 9]: 24 nM

Compound: COc1cc(-c2[nH]c3ccc(C4CCC(NC5COC5)CC4)nc3c2C(C)C)cn2ncnc12 (stereo not drawn) [Example 178]
- IC50 [1, 7]: 1.8 nM
- IC50 [2, 8]: 895 nM
- IC50 [3, 9]: 0.48 nM

Compound: COc1cc(-c2[nH]c3ccc(C4CCC(NC5COC5)C4)nc3c2C(C)C)cn2ncnc12 (stereo not drawn) [Example 715]
- IC50 [1, 4]: 11 nM
- IC50 [2, 5]: 8710 nM
- IC50 [3, 6]: 1.7 nM

Compound: COc1cc(-c2[nH]c3ccc(C4CC(NC(=O)CN(C)C)C4)nc3c2C(C)C)cn2ncnc12 (stereo not drawn) [Example 619]
- IC50 [1, 4]: 3 nM
- IC50 [2, 5]: 865 nM
- IC50 [3, 6]: 0.43 nM

Compound: COc1cc(-c2[nH]c3ccc(OC4CCN(CC(C)(C)O)CC4)nc3c2C(C)C)cn2ncnc12 [Example 613, 1-(4-((3-isopropyl-2-(8-methoxy-[1,2,4]triazolo[1,5-a]pyridin-6-yl)-1H-pyrrolo[3,2-b]pyridin-5-yl)oxy)piperidin-1-yl)-2-methylpropan-2-ol]
- IC50 [1, 4]: 3.2 nM
- IC50 [2, 5]: 1240 nM
- IC50 [3, 6]: 2 nM

Compound: [2H]C([2H])(C(=O)N1CCN(c2ccc3[nH]c(-c4cn5ncnc5c(C)c4C)c(C(C)C)c3n2)CC1)N(C)C (single isomer, unassigned) [Example 889]
- IC50 ([1]; TLR8 IC50, HEK-Blue human TLR8 cells, R848 15.9 μM): 0.76 nM
- IC50 ([2]; TLR9 IC50, HEK-Blue human TLR9 cells, ODN2006 5 nM): 9840 nM
- IC50 [3, 12]: 1.5 nM

Compound: CC(C)c1c(-c2cc(CO)c3ncnn3c2)[nH]c2ccc(C3CCC(N(C)Cc4ccc(F)cc4)CC3)nc12 (stereo not drawn) [Example 306]
- IC50 [1, 7]: 61 nM
- IC50 [2, 8]: 10100 nM
- IC50 [3, 9]: 13 nM

Compound: Cc1cc(-c2[nH]c3ccc(C4CCNCC4)nc3c2C(C)C)cn2nnnc12 [Example 517]
- IC50 [1, 4]: 6 nM
- IC50 [2, 5]: 150 nM
- IC50 [3, 6]: 1.1 nM
